This is an account of results in PMC4232510, “Identification of Functionally Important Residues of the Rat P2X4 Receptor by Alanine Scanning Mutagenesis of the Dorsal Fin and Left Flipper Domains” (PLoS ONE, 2014).

What all share (assay): whole-cell patch clamp, HEK293T cells expressing mutant
Holding throughout (assay type): cell-based
Holding throughout (settings): for relative responsiveness: 100 µM agonist 2 s, relative to ATP (100%)
On the technique in general: In patch-clamp work, channel activity is measured electrically.

In assay [1] the target is T1, rP2X4R T211A mutant (Rattus norvegicus, UniProt P51577, T211A).
T1 construct: expressed in transfected cells; host or cells: HEK293T
T1 sequence (P51577 1-388 T211A): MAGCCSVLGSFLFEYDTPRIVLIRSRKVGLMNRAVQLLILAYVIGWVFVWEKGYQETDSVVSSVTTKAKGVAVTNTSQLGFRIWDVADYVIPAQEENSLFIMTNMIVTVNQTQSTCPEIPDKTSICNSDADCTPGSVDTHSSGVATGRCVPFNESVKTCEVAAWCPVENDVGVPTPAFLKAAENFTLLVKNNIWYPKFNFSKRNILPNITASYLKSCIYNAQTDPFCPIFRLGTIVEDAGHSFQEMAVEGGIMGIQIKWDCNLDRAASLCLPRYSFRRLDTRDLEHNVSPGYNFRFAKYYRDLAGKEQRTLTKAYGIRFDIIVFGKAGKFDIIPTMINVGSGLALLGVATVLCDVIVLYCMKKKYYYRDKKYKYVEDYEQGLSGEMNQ
As to the method:
(§1) To express the recombinant channels, we used human embryonic kidney (HEK) 293T cells (American Type Culture Collection, Rockville, MD, USA) grown in Dulbecco modified Eagle’s medium (Thermo Fisher Scientific, Waltham, MA) supplemented with 10% fetal bovine serum (Sigma-Aldrich, St Louis, MO), 50 U/ml penicillin and 50 µg/ml streptomycin (both Thermo Fisher Scientific, Waltham, MA) in a humidified 5% CO2 and 95% air at 37°C. Cells were cultured in 75 cm^2 plastic culture flasks (NUNC, Rochester, NY) for 36–72 hours until reaching 80–95% confluence. Before the day of transfection, the cells were plated on 35 mm culture dishes (Sarstedt, Newton, NC) and incubated at 37°C for at least 24 h. Transfection was done using 2 µg of either WT or mutant receptor DNA with 2 µl of JetPrime reagent in 2 ml of Dulbecco modified Eagle’s medium, according to manufacturer’s instructions (PolyPlus-transfection, Illkirch, France). Transfected cells were identified by the fluorescence signal of EGFP using the Olympus IX71 inverted research microscope with fluorescence illuminators (Model IX71; Olympus, Melville, NY).
(§2) cDNAs encoding the sequences of the rP2X4 and mutated subunits were subcloned into the pIRES2-EGFP vector (Clontech, Mountain View, CA, USA). To generate the mutants, oligonucleotides (synthesized and provided by VBC-Genomics, Vienna, Austria or Sigma Aldrich) containing specific mutagenesis mismatches were introduced into the rP2X4/pIRES2-EGFP template using PfU Ultra DNA polymerase (Thermo Fisher Scientific). A High-Speed Plasmid Mini Kit (Geneaid, Taipei City, Taiwan) was used to isolate the plasmids for transfection. Dye terminator cycle sequencing (ABI PRISM 3100, Applied Biosystems, Foster City, CA) was used to identify and verify the presence of the mutations. The sequencing was performed by the DNA Sequencing Laboratory, Institute of Microbiology, ASCR, Prague.
(§3) ATP-induced currents were recorded from whole cells clamped to −60 mV using an Axopatch 200B patch-clamp amplifier (Axon Instruments, Union City, CA). The recordings were captured and stored using the Digidata 1322A and pClamp9 software package (Axon Instruments). During the experiments, the cell culture was perfused with a bath solution containing: 142 mM NaCl, 3 mM KCl, 2 mM CaCl2, 1 mM MgCl2, 10 mM 4-(2-Hydroxyethyl)piperazine-1-ethanesulfonic acid (HEPES) and 10 mM D-glucose, adjusted to pH 7.3 with 1 M NaOH. The patch electrodes were filled with a solution containing: 154 mM CsCl, 11 mM EGTA and 10 mM HEPES, adjusted to pH 7.2 with 1.6 M CsOH. The whole-cell configuration was used to abolish the influence of natively present metabotropic receptors for ATP and we used intracellular cesium to block any kind of possible background potassium conductance. Potency of ATP was measured based on the activation of naïve (not previously stimulated) receptors using a short (2–5 s) application of various concentrations of ATP. The results are expressed as molar concentration of ATP required to produce 50% of the maximal response (EC50). One or two responses were recorded from one cell, if not otherwise stated, and responses from different cells were pooled. The maximum current amplitude (Imax) was measured in response to application of supramaximal concentrations (100–1000 µM) of ATP. Responsiveness to P2XR agonists 2-MeS-ATP, ATPγS, BzATP, and α,β-meATP, all applied in 100 µM concentration, was expressed as percentage of response in comparison to 100 µM ATP treatment for selected mutants. In all mutants, the whole cell currents were also measured in the presence of 3 µM IVM, which was dissolved in dimethyl sulfoxide, stored in stock solutions at 10 mM, and diluted to required concentrations in bath solution in the day of experiment. The control and drug containing solutions were applied via a rapid (exchange time 30–40 ms) perfusion system (RSC-200, BIOLOGIC, Claix, France). All other chemicals are from Sigma-Aldrich. […]

For assay [2], the target named is T2, rP2X4R Y213A mutant (Rattus norvegicus, UniProt P51577, Y213A).
T2 construct: expressed in transfected cells; host or cells: HEK293T
T2 sequence (P51577 1-388 Y213A): T1 sequence (P51577 1-388 T211A) with A211T, Y213A
As to the method:
as §1, §2, §3

Assay [3] concerns the target T3, rP2X4R L206A mutant (Rattus norvegicus, UniProt P51577, L206A).
T3 construct: expressed in transfected cells; host or cells: HEK293T
T3 sequence (P51577 1-388 L206A): T1 sequence (P51577 1-388 T211A) with L206A, A211T
As to the method: as §1, §2, §3

[4] abbreviates: 100 µM ATP 60 s, biexponential fit.
Setting [5] is: contribution of τdes2, 100 µM ATP 60 s.
The mark [6] stands for this setting: decay after removal of 1 or 3 µM ATP, 3 µM IVM.
Where [7] appears, read: naïve receptors, 2–5 s application.
Setting [8] is: 3 µM IVM 4-6 min vs IVM-untreated.

Positions count from the first letter of the chain named.

Broadly, the EC50 is the midpoint of the concentration-response curve. High values mean a need for much substance, low ones an effect from little substance.

Take `Nc1ncnc2c1ncn2C1OC(COP(=O)(O)CP(=O)(O)OP(=O)(O)O)C(O)C1O` (stereo not drawn) [α,β-meATP, α,β-methyleneadenosine 5′-triphosphate]: the values for the relative responsiveness in assay [1], in assay [2] and in assay [3] were 39.1±7.2%, 31.3±6.7% and 27.5±2.5%, respectively.

`Nc1ncnc2c1ncn2[C@@H]1O[C@H](COP(=O)(O)OP(=O)(O)OP(=O)(O)O)[C@@H](O)[C@H]1O` [ATP]: the figures for the τdes1 in assay [1] (setting [4]), in assay [2] (setting [4]) and in assay [3] (setting [4]) were 0.9 ± 0.4 s, 3.0 ± 0.3 s and 1.1 ± 0.2 s, respectively. Further, the τdes2 in assay [1] (setting [4]) was determined as 8.3 ± 2.4 s; in assay [2] (setting [4]) it was 12.4 ± 1.6 s; in assay [3] (setting [4]), 8.9 ± 2.2 s. The Imax in assay [1] (100–1000 µM ATP) was 2.3 ± 0.3 nA; in assay [2] (100–1000 µM ATP), 2.2 ± 0.4 nA; in assay [3] (100–1000 µM ATP) it was 2.4 ± 0.3 nA. For the same compound, the “Imax+IVM” value was determined as 3.9 ± 0.7 nA in assay [1] (ATP after 3 µM IVM 4-6 min), 3.1 ± 0.2 nA in assay [2] (ATP after 3 µM IVM 4-6 min) and 4.8 ± 0.8 nA in assay [3] (ATP after 3 µM IVM 4-6 min). For the same compound, the “A2 /(A1+A2)” value in assay [1] (setting [5]) amounted to 60 ± 8%; in assay [2] (setting [5]), 61 ± 6%; in assay [3] (setting [5]) it was 70 ± 4%. Further, the “τoff +IVM” value in assay [1] (setting [6]) was found to be 28 ± 2.5 s; in assay [2] (setting [6]), 18 ± 4.3 s; in assay [3] (setting [6]) it was 9.0 ± 1.4 s. The EC50 worked out at 2.6 ± 0.6 µM in assay [1] (setting [7]), 6 ± 0.9 µM in assay [2] (setting [7]) and 10 ± 4.1 µM in assay [3] (setting [7]). Further, the τdes in assay [1] (weighted, 100 µM ATP 60 s) came out at 5.0 ± 1.1 s; in assay [2] (weighted, 100 µM ATP 60 s), 8.5 ± 0.8 s; in assay [3] (weighted, 100 µM ATP 60 s), 6.3 ± 1.6 s.

Regarding `CSc1nc(N)c2ncn([C@@H]3O[C@H](COP(=O)(O)OP(=O)(O)OP(=O)(O)O)[C@@H](O)[C@H]3O)c2n1` [2-MeS-ATP, 2-(Methylthio)adenosine 5′-triphosphate], the relative responsiveness in assay [1] is 79.3±6.7%; in assay [2], 63.8±16.4%; in assay [3], 68.3±6.5%.

As to “2′(3′-O-(4-Benzoylbenzoyl)adenosine 5′-triphosphate [BzATP]”, the results for the relative responsiveness in assay [1], in assay [2] and in assay [3] were 23.4±4.7 %, 27.3±5.5% and 33.7±8.0%, respectively.

Take `Nc1ncnc2c1ncn2[C@@H]1O[C@H](CO[P@](=O)(O)O[P@](=O)(O)O[P@@](=O)(O)S)[C@@H](O)[C@H]1O` [ATPγS, Adenosine 5′-(γ-thio)triphosphate]: the relative responsiveness in assay [1] is reported as 61.8±6.1%; in assay [2] it was 37.1±5.5%; in assay [3], 39.6±8.4%.

As for `CC[C@H](C)[C@H]1O[C@]2(CC[C@@H]1C)C[C@@H]1C[C@@H](C/C=C(\C)[C@@H](O[C@H]3C[C@H](OC)[C@@H](O[C@H]4C[C@H](OC)[C@@H](O)[C@H](C)O4)[C@H](C)O3)[C@@H](C)/C=C/C=C3\CO[C@@H]4[C@H](O)C(C)=C[C@@H](C(=O)O1)[C@]34O)O2` [IVM, ivermectin], the results for the “Fold incr. Imax” value in assay [1] (setting [8]), in assay [2] (setting [8]) and in assay [3] (setting [8]) were 1.6 ± 0.3 fold, 1.4 ± 0.1 fold and 1.7 ± 0.2 fold, respectively.
